From patent US10945971B2, “Sphingosine kinase type 1 inhibitors and uses thereof” (Enzo Therapeutics, Inc., priority 2008, dated 2021)

Tests used:
U373 cells [1] = assay: Cell proliferation (WST-1), U373 cells; assay type: cell-based, human
Description: (§1) U373-MG and LN229 human glioblastoma cells (ATTC, Manassas, Va.) were cultured in DMEM supplemented with 5% FCS. Primary human non-established glioblastoma GBM6 cells were kindly provided by Dr. C. David James and were passaged as tumors in nude mice and subcultured for 1 week following isolation from tumors in media containing 2% FCS to prevent growth of contaminating rodent fibroblasts and then cultured in 5% FCS as described (Yacoub et al., Mol Cancer Ther 7:314-329, 2008). LN229 cells were transfected with H2B-EGFP plasmid and stable colonies were isolated following selection with 1 mg/ml of G418. LN229-H2B-EGFP cells were passaged as tumors as described above.
(§2) Cells were plated at 10,000 cells/well in 48-well plates and allowed to attach for 24 h. Cell proliferation was measured at the indicated times with WST-1 and absorbance was measured in a plate reader at 450 nm with background subtraction at 630 nm. Cell death was detected by trypan blue exclusion assays in which the percent of blue dye incorporating cells were determined using a light microscope and a hemacytometer as described (Yacoub et al. Mol Cancer Ther 7:314-329, 2008). Apoptotic cell death was measured by staining cell nuclei with the Hoechst dye bisbenzimide and apoptotic cells were identified by condensed, fragmented nuclear regions as described previously (Sankala et al. Cancer Res 67:10466-10474, 2007). A minimum of 300 cells was scored.

LN229 cells [2] = assay: Cell proliferation (WST-1), LN229 cells; assay type: cell-based, human
Description: as §1, §2

U87 cells = assay: Proliferation of U87 glioblastoma cells; assay type: cell-based, human
Description: as §2

U373 cells [3] = assay: Boyden chamber chemotaxis, U373 cells; assay type: cell-based, human
Description: (§3) Boyden chamber invasion assays were carried out essentially as described (Shida et al. Cancer Res 68:6569-6577, 2008).

LN229 cells [4] = assay: Boyden chamber chemotaxis, LN229 cells; assay type: cell-based, human
Description: as §3

LN229 cells [5] = assay: In vitro invasion into Matrigel, LN229 cells; assay type: cell-based, human
Description: as §3

Akt [6] = assay: Western blotting of Akt phosphorylation, U373 cells; assay type: cell-based, human
Description: (§4) Cells were scraped in buffer containing 20 mM Tris-HCl, pH 7.5, 50 mM NaCl, 50 mM NaF, 30 mM Na4P2O7, 20 mM 2-glycerophosphate, 1 mM Na3VO4, 5 mM EDTA, 2 mM EGTA, 0.5% SDS and protease inhibitor cocktail (1:200 dilution) and probe-sonicated. Equal amounts of protein determined with bicinchoninic acid (Pierce, Rockford, Ill.), were resolved by SDS-PAGE and transferred to nitrocellulose membranes. Blots were blocked with 5% non-fat dry milk in Tris-buffered saline containing 0.1% […] (TBST) for 1 h at room temperature, and then incubated with primary antibodies (1:3,000 in 1% BSA) overnight, followed by the appropriate HRP-conjugated secondary antibodies (1:40,000 in 1% BSA). Immunocomplexes were visualized by enhanced chemiluminescence (Pierce).

EGFR, Gab1 = assay: EGF-induced tyrosine phosphorylation of EGFR and Gab1; assay type: cell-based
Description: as §4

Akt [7] = assay: Western blotting of Akt phosphorylation, GBM6 cells; assay type: cell-based, human; conditions: GBM6, shortly following treatment
Description: as §4

JNK = JNK pathway and p38 MAPK activation, LN229 cells; assay type: cell-based, human
Description: as §4

LN229 xenograft tumors = assay: Subcutaneous LN229 xenograft tumors in nu/nu mice; assay type: in vivo; conditions: 10 mg/kg i.p. every other day
Description: Adult male NCI nu/nu mice were purchased from NCI (Frederick, Md.). All animal studies were conducted in the Animal Research Core Facility at VCU School of Medicine in accordance with the institutional guidelines. LN229 cells (1×10^6) were injected in the flanks (4 sites per mouse). Palpable tumors appeared in about one week. Five days later, when tumors reached 3-4 mm in diameter, mice were randomly separated into 2 groups and injected i.p. with saline or SK1-I (10 mg/kg) every other day. Tumor measurements were made with calipers, and tumor volume was calculated using the formula: (π×[length in millimeters]×[width in millimeters]2)/6. At the end of the experiment, the animals were euthanized and the tumors removed, fixed in formalin and embedded in paraffin, or frozen in liquid nitrogen.
Paraffin sections were dewaxed, rehydrated, incubated with proteinase K before permeabilization, and then stained with hematoxylin-eosin. Frozen sections were dried, fixed in formalin, and stained with antibodies against mouse CD-31 (BD Pharmingen, San Jose, Calif.), or rabbit antibodies against phospho-Akt (Ser473) (Cell Signaling) followed by immunohistochemistry with Alexa-488-conjugated species-specific secondary antibodies. Cryosections were air dried, permeabilized with 0.5% Triton X-100, and stained with a fluorescein TUNEL labeling kit (Roche Applied Sciences, Indianapolis, Ind.) followed by counterstaining with Hoechst. Sections were also stained with goat anti-human VEGF affinity-purified antibody (R&D), visualized with anti-goat horseradish peroxidase-diaminobenzidene staining kit (R&D) and counterstained with hematoxylin.

[8] = U.S. Ser. No. 12/387,228; cited from earlier work
[9] = system: human leukemic cell lines; conditions: U.S. Ser. No. 12/387,228; cited from earlier work
AML xenograft tumors = conditions: U.S. Ser. No. 12/387,228; cited from earlier work

CCCCCc1ccc(/C=C/[C@H](O)[C@@H](CO)NC)cc1 [SK1-I, (2R,3S,4E)-N-methyl-5-(4′-pentylphenyl)-2-aminopent-4-ene-1,3-diol]
cell growth (U373 cells [1]; U373, 10 μM, absence of serum): strongly inhibited growth | cell numbers (U373 cells [1]; U373, 10 μM, presence of serum, within 2-4 days): severe reductions in cell numbers | concentration at which a significant growth inhibitory effect was observed (U373 cells [1]; U373 cells): 3 µM | cell growth (LN229 cells [2]; LN229, 10 μM, absence of serum): strongly inhibited growth | cell numbers (LN229 cells [2]; LN229, 10 μM, presence of serum, within 2-4 days): severe reductions in cell numbers | concentration at which a significant growth inhibitory effect was observed (LN229 cells [2]; LN229 cells): 3 µM | proliferation (U87 cells): suppress proliferation | chemotaxis toward serum or EGF (U373 cells [3]): reduced | chemotaxis toward lysophosphatidic acid (LPA) (LN229 cells [4]): drastically inhibited | chemotaxis toward serum and EGF (LN229 cells [4]): significantly inhibited | LPA-, serum- and EGF-stimulated in vitro invasion of Matrigel (LN229 cells [5]): greatly attenuated | basal Akt phosphorylation at Thr308 and Ser473 (Akt [6]; U373): reduced | time to significant inhibitory effect on Akt phosphorylation (Akt [6]; U373): ≤ 20 min | duration of inhibitory effect on Akt phosphorylation (Akt [6]; U373, data not shown): at least 24 hours | total Akt levels (Akt [6]; after treatment with SK1-I): no significant reductions | EGF-induced tyrosine phosphorylation of EGFR or of Gab1 (EGFR, Gab1): did not affect | basal and serum- and EGF-stimulated phosphorylation of Akt (Akt [7]): reduced | activation of JNK (JNK; LN229): delayed activation of JNK | phosphorylation of c-Jun (Ser63/73) and ATF-2 (Thr71) (JNK; LN229, after addition of SK1-I): enhanced phosphorylation | p38 MAPK (JNK; LN229, data not shown): without affecting | TUNEL positive apoptotic tumor cells (LN229 xenograft tumors): increased numbers | VEGF expression in tumors (LN229 xenograft tumors): greatly reduced | blood vessel density (CD31 staining) (LN229 xenograft tumors): reductions | phosphorylated Akt immunostaining in tumors (LN229 xenograft tumors): markedly decreased | vascularization in tumors (hematoxilin and eosin) (LN229 xenograft tumors): decreased vascularization | reduction of tumor weight (LN229 xenograft tumors; after 43 days, vs vehicle): ~4 fold | tumor volume (LN229 xenograft tumors; vs control, single factor ANOVA): significantly smaller tumors | water solubility [8]: water-soluble | apoptosis [9]: markedly induced apoptosis | tumor growth (AML xenograft tumors): inhibited growth
